Results: patent US20260108521A1, “GSPT1 DEGRADERS, COMPOSITIONS COMPRISING THE DEGRADER, AND METHODS OF USING THE SAME” (BIOFRONT LTD, priority 2022, published 2026)

Target: T1, GSPT1 protein (Homo sapiens, UniProt P15170+Q96SW2)
T1 construct: endogenous in cells; host or cells: HL-60 cells
Experiment: GSPT1 degradation assay (western blot) in HL-60 cells
Assay type: cell-based
Conditions: GSPT1 protein level, 2h incubation, western blot normalized to beta-Actin; for inhibition at 0.1 µM: 0.1 μM compound; for inhibition at 1 µM: 1 μM compound
Method: HL-60 cells (4×10^^6 cells/well) were seeded in 6-well culture plate (Costar, 3516) and treated with a variety of concentrations of test compound. After 2h incubation, cells were collected and lysed. The protein concentration was determined by BCA protein assay kit from Thermo (23227). The GSPT1 protein level was determined by western blots, using GSPT1 polyclonal antibody. Proteins were loaded into each well of the pre-casting gels and subjected to electrophoretic separation by SDS-PAGE. The protein resolved by SDS-PAGE were transferred to PVDF, blocked by 5% skim milk and probed with anti-GSPT1 antibody (Proteintech, 10763-1-AP) or anti-β-actin antibody (CST, 3700S), using following standard western blotting procedure. Blots intensities were quantified using ImageJ software and the intensity of GSPT1 bands were normalized to beta-Actin bands, respectively. The GSPT1 degradation results were then calculated. Reported compound C84971 (see WO2021126974A1 and WO2021126973A1) was used as a reference.

T1 sequence (P15170 whole entry): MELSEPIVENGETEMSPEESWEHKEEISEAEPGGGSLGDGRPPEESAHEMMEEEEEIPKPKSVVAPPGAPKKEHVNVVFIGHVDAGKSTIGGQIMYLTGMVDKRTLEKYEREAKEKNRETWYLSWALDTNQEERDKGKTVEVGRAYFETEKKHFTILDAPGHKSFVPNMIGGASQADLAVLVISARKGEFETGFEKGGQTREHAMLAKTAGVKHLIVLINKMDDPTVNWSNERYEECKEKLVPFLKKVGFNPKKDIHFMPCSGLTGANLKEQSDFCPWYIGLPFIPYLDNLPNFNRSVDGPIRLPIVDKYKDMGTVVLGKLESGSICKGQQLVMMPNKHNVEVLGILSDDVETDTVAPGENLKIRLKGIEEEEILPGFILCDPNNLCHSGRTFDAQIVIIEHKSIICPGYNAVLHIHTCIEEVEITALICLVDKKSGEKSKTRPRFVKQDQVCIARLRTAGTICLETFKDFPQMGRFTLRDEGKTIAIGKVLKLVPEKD
T1 sequence (Q96SW2 whole entry): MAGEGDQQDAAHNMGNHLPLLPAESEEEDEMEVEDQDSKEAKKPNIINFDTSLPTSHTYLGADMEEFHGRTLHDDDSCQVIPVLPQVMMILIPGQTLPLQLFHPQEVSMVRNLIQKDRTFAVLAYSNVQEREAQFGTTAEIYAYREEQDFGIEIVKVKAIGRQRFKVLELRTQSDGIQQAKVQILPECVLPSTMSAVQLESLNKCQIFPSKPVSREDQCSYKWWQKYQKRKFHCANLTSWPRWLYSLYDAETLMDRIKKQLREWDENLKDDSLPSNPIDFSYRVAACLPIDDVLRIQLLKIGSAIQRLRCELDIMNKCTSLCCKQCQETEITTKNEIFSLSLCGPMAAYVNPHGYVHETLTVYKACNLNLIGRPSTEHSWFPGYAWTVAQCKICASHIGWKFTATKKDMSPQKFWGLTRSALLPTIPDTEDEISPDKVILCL
T1 sequence (Q16531 whole entry partner): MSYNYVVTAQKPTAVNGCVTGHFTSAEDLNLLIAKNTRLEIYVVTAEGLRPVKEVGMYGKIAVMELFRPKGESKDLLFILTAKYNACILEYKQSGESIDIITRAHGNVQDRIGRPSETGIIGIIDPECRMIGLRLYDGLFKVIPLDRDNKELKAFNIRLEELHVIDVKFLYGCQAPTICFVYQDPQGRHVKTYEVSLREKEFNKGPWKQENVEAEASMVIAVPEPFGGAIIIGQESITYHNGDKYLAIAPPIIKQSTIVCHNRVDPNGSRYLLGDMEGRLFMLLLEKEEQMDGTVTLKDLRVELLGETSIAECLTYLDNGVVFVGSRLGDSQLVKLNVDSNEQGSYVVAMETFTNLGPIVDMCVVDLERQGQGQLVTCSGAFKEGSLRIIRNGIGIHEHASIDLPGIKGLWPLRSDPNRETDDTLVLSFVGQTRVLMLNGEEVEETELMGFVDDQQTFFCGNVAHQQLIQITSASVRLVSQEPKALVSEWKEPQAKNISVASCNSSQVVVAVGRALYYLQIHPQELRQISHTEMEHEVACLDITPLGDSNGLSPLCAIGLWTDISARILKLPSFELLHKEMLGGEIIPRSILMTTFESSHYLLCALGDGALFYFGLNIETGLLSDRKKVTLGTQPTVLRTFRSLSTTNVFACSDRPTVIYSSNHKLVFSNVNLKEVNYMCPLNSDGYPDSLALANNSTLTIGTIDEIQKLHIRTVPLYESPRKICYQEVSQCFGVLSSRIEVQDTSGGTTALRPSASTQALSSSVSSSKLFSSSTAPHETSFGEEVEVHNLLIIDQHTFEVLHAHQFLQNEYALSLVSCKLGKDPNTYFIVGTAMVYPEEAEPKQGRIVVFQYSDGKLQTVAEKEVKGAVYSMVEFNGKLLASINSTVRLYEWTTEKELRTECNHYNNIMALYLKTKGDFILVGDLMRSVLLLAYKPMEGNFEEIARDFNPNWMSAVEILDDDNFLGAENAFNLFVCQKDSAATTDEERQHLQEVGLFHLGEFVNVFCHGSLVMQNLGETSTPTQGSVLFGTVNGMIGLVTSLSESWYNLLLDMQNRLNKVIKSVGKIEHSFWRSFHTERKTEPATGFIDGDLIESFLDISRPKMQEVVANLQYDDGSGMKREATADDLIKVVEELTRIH

Structure (SMILES)	inhibition at 0.1 µM [%]	inhibition at 1 µM [%]
O=C1CCC(N2C(=O)c3ccc(N4CCC(CN5CCCN(C6CCCCC6)C5=O)CC4)cc3C2=O)C(=O)N1 (stereo not drawn) [Compound 5, 5-(4-((3-cyclohexyl-2-oxotetrahydropyrimidin-1(2H)-yl)methyl)piperidin-1-yl)-2-(2,6-dioxopiperidin-3-yl) isoindoline-1,3-dione]	17	7
O=C1CCC(N2C(=O)c3ccc(N4CCC(CN5CCCN(c6cccc(Cl)c6)C5=O)CC4)cc3C2=O)C(=O)N1 (stereo not drawn) [Compound 14, 5-(4-((3-(3-chlorophenyl)-2-oxotetrahydropyrimidin-1(2H)-yl)methyl)piperidin-1-yl)-2-(2,6-dioxopiperidin-3-yl)isoindoline-1,3-dione]	0	0
O=C1CCC(c2ccc(N3CCC(CN4CCCN(c5ccccc5)C4=O)CC3)cc2)C(=O)N1 (stereo not drawn) [Compound 13, 3-(4-{4-[(2-oxo-3-phenyl-1,3-diazinan-1-yl)methyl]piperidin-1-yl}phenyl) piperidine-2,6-dione]	0	0
CS(=O)(=O)c1ccc(-c2cccc(N3CCCN(CC4CCN(c5ccc6c(c5)C(=O)N(C5CCC(=O)NC5=O)C6=O)CC4)C3=O)c2)c(Cl)c1 (stereo not drawn) [Compound 33, 5-[4-({3-[3-(2-chloro-4-methanesulfonylphenyl)phenyl]-2-oxo-1,3-diazinan-1-yl}methyl)piperidin-1-yl]-2-(2,6-dioxopiperidin-3-yl)isoindole-1,3-dione]	< 10	15
O=C1CCC(c2ccc(N3CCC(CCN4CCCN(c5ccccc5)C4=O)CC3)cc2)C(=O)N1 (stereo not drawn) [Compound 20, 3-(4-(4-(2-(2-oxo-3-phenyltetrahydropyrimidin-1(2H)-yl)ethyl)piperidin-1-yl)phenyl)piperidine-2,6-dione]	0	0
CCNc1ccc(-c2cccc(N3CCCN(CC4CCN(c5ccc6c(c5)C(=O)N(C5CCC(=O)NC5=O)C6=O)CC4)C3=O)c2)c(Cl)c1 (stereo not drawn) [Compound 30, 5-{4-[(3-{3-[2-chloro-4-(ethylamino)phenyl]phenyl}-2-oxo-1,3-diazinan-1-yl)methyl]piperidin-1-yl}-2-(2,6-dioxopiperidin-3-yl)isoindole-1,3-dione]	37	45
CCc1c[nH]c2ccc(-c3cc(N4CCCN(CC5CCN(c6ccc7c(c6)C(=O)N(C6CCC(=O)NC6=O)C7=O)CC5)C4=O)ccn3)c(Cl)c12 (stereo not drawn) [Compound 35, 5-(4-((3-(2-(4-chloro-3-ethyl-1H-indol-5-yl)pyridin-4-yl)-2-oxotetrahydropyrimidin-1(2H)-yl)methyl)piperidin-1-yl)-2-(2,6-dioxopiperidin-3-yl)isoindoline-1,3-dione]	0	0
Cc1csc(N2CCCN(CC3CCN(c4ccc5c(c4)C(=O)N(C4CCC(=O)NC4=O)C5=O)CC3)C2=O)n1 (stereo not drawn) [Compound 18, 2-(2,6-dioxopiperidin-3-yl)-5-(4-{[3-(4-methyl-1,3-thiazol-2-yl)-2-oxo-1,3-diazinan-1-yl]methyl}piperidin-1-yl)isoindole-1,3-dione]	32	36
CCn1ncc2ccc(-c3cccc(N4CCCN(CC5CCN(c6ccc7c(c6)C(=O)N(C6CCC(=O)NC6=O)C7=O)CC5)C4=O)c3)c(Cl)c21 (stereo not drawn) [Compound 34, 5-(4-((3-(3-(7-chloro-1-ethyl-1H-indazol-6-yl)phenyl)-2-oxotetrahydropyrimidin-1(2H)-yl)methyl)piperidin-1-yl)-2-(2,6-dioxopiperidin-3-yl)isoindoline-1,3-dione]	58	53
O=C1CCC(N2C(=O)c3ccc(N4CC(CCN5CCCN(c6cccc(-c7ccn8ccnc8c7)c6)C5=O)C4)cc3C2=O)C(=O)N1 (stereo not drawn) [Compound 21, 2-(2,6-dioxopiperidin-3-yl)-5-(3-(2-(3-(3-(imidazo[1,2-a]pyridin-7-yl)phenyl)-2-oxotetrahydropyrimidin-1(2H)-yl)ethyl)azetidin-1-yl)isoindoline-1,3-dione]	35	40
O=C1CCC(N2C(=O)c3ccc(N4CCC(CN5CCCN(c6ccccn6)C5=O)CC4)cc3C2=O)C(=O)N1 (stereo not drawn) [Compound 4, 2-(2,6-dioxopiperidin-3-yl)-5-(4-{[2-oxo-3-(pyridin-2-yl)-1,3-diazinan-1-yl]methyl}piperidin-1-yl)isoindole-1,3-dione]	0	0
O=C1CCC(N2C(=O)c3ccc(N4CCC(CN5CCCN(Cc6ccc(F)cc6)C5=O)CC4)cc3C2=O)C(=O)N1 (stereo not drawn) [Compound 16, 2-(2,6-dioxopiperidin-3-yl)-5-(4-((3-(4-fluorobenzyl)-2-oxotetrahydropyrimidin-1(2H)-yl)methyl)piperidin-1-yl)isoindoline-1,3-dione]	26	32
CN(C)C(=O)c1ccc(-c2cccc(N3CCCN(CC4CCN(c5ccc6c(c5)C(=O)N(C5CCC(=O)NC5=O)C6=O)CC4)C3=O)c2)c(Cl)c1 (stereo not drawn) [Compound 32, 3-chloro-4-{3-[3-({1-[2-(2,6-dioxopiperidin-3-yl)-1,3-dioxoisoindol-5-yl]piperidin-4-yl}methyl)-2-oxo-1,3-diazinan-1-yl]phenyl}-N,N-dimethylbenzamide]	< 10	< 10
O=C1CCC(N2C(=O)c3ccc(N4CCC(CN5CCN(Cc6ccc(F)cc6)C5=O)CC4)cc3C2=O)C(=O)N1 (stereo not drawn) [Compound 17, 2-(2,6-dioxopiperidin-3-yl)-5-(4-((3-(4-fluorobenzyl)-2-oxoimidazolidin-1-yl)methyl)piperidin-1-yl)isoindoline-1,3-dione]	36	22
O=C1CCC(N2C(=O)c3ccc(N4CCC(CN5CCN(c6ccccc6)C5=O)CC4)cc3C2=O)C(=O)N1 (stereo not drawn) [Compound 2, 2-(2,6-dioxopiperidin-3-yl)-5-(4-((2-oxo-3-phenylimidazolidin-1-yl)methyl)piperidin-1-yl)isoindoline-1,3-dione]	0	0
Cc1nc2ncc(-c3cccc(N4CCCN(CCC5CN(c6ccc7c(c6)C(=O)N(C6CCC(=O)NC6=O)C7=O)C5)C4=O)c3)cc2o1 (stereo not drawn) [Compound 24, 2-(2,6-dioxopiperidin-3-yl)-5-(3-(2-(3-(3-(2-methyloxazolo[4,5-b]pyridin-6-yl)phenyl)-2-oxotetrahydropyrimidin-1(2H)-yl)ethyl)azetidin-1-yl)isoindoline-1,3-dione]	26	29
CNC(=O)c1ccc(-c2cccc(N3CCCN(CC4CCN(c5ccc6c(c5)C(=O)N(C5CCC(=O)NC5=O)C6=O)CC4)C3=O)c2)c(Cl)c1 (stereo not drawn) [Compound 31, 3-chloro-4-{3-[3-({1-[2-(2,6-dioxopiperidin-3-yl)-1,3-dioxoisoindol-5-yl]piperidin-4-yl}methyl)-2-oxo-1,3-diazinan-1-yl]phenyl}-N-methylbenzamide]	45	55
CC(C)(C)N1CCCN(CC2CCN(c3ccc4c(c3)C(=O)N(C3CCC(=O)NC3=O)C4=O)CC2)C1=O (stereo not drawn) [Compound 7, 5-(4-((3-(tert-butyl)-2-oxotetrahydropyrimidin-1(2H)-yl)methyl)piperidin-1-yl)-2-(2,6-dioxopiperidin-3-yl)isoindoline-1,3-dione]	0	10
